The values that follow come from patent US12448363B2, “Kinase inhibitors” (Vidya Therapeutics, Inc., priority 2020, dated 2025).

SMILES strings stand for the structures. Some results are limits rather than exact numbers.

For test [1], the target named is BTK (Homo sapiens, UniProt Q06187). The test is described as follows: Assay to determine activity against BTK (EZ reader, FLPeptide). Type of test: biochemical. More on the design: purchased Carna. To be noted: ATP (1 mM), BTK (2 nM), room temperature for 90 minutes. The protocol: Solutions of compounds (test or control) in DMSO were prepared at the desired concentrations, and serially diluted to 11 concentrations by 3-fold dilution in 384pp-plate using TECAN EVO200. 20 nL of stock were transferred to 384 plate using Echo550. DMSO was used as vehicle control.
Sequence of BTK (Q06187 whole entry): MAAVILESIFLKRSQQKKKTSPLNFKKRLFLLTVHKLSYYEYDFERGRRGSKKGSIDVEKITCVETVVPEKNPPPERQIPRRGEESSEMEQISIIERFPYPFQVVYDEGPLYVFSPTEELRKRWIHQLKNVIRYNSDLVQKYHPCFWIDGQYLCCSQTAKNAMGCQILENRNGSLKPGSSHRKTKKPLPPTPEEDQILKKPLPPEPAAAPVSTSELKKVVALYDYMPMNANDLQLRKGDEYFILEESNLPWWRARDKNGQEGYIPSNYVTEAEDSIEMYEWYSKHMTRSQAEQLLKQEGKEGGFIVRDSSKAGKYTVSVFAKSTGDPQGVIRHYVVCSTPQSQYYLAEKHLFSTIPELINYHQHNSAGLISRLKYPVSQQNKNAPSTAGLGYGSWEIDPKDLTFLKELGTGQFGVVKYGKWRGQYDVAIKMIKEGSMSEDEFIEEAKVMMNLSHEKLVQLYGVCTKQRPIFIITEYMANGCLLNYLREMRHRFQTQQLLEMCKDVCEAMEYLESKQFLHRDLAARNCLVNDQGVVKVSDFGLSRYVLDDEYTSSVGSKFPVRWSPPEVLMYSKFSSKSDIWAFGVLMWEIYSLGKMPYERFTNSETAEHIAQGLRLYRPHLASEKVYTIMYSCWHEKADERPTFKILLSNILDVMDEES
Two separate solutions were prepared—an ATP solution containing MgCl2 (10 mM), Brij-35 (0.01%), DTT (2 mM), BSA (0.05%), EGTA (1 mM), HEPE (pH7.5) (50 mM), FLPeptide (6 uM) and ATP (4 mM); and a BTK solution containing MgCl2 (10 mM), Brij-35 (0.01%), DTT (2 mM), BSA (0.05%), EGTA (1 mM), HEPE (pH7.5) (50 mM) and BTK (2.67 nM). […] (Note the final volume of each well was 20 uL containing MgCl2 (10 mM), Brij-35 (0.01%), DTT (2 mM), BSA (0.05%), EGTA (1 mM), HEPE (pH7.5) (50 mM), FLPeptide (1.5 uM), ATP (1 mM) and BTK (2 nM).
The plates were incubated at room temperature for 90 minutes and then stopping buffer added (75 uL, containing 0.5 M EDTA) to terminate the reaction. Samples from each well were analyzed using EZ reader. The % remaining activity was calculated using read conversion ratio (CR) according to the equation: […]
XLFit (equation 201) was used to calculate IC50s by floating both bottom and top.
With respect to BTK activity, Table 4 lists activity as follows: • “A” denotes an IC50 of less than 10 nM, • “B” denotes an IC50 of from 10 nM to less than 100 nM; and • “C” denotes and IC50 of 100 nM or more.

Test [2] relates to BTK Activity in RAMOS B Cells. The test is described as follows: Assay to determine BTK activity in RAMOS B cells (anti-IgM, FLIPR Calcium 6). Type of test: cell-based. To be noted: Homo sapiens, EC80 anti-IgM, FLIPR calcium read. The procedure: On the day before assay, Ramos B cells were plated in plating medium (RPMI1640 medium containing 1% FBS and 1× pencillin-streptomycin). On the day of the assay, 2× dye solution was prepared following the manual of the FLIRP Calcium 6 Assay Kit: Dilute the dye with assay buffer (20 mM HEPES in 1×HBSS, pH7.4); Add probenecid to the final concentration of 5 mM; vortex vigorously for 1-2 minutes. Cells were collected by centrifuging, and the pellet was resuspended in plating medium. After counting, cells were resuspended at a density of 3×10^6/ml in plating medium. Equal volume of 2× dye solution was added to the cell suspension. Cells were then plated at 20 μl/well into a 384-well poly-D-lysine coated plate. Plate was centrifuged at 1000 rpm for 3 minutes and then incubated at 37° C. for 2 hours followed by an additional 15-minute incubation at 25° C. Compounds were prepared at 3× concentration in dilution buffer (20 mM HEPES and 0.1% BSA in 1×HBSS, pH 7.4). Serially diluted compound was transferred from source plate to a 384-well compound plate by using an Echo 550 (Labcyte). 20 μl/well compound dilution buffer was added to the compound plate and mixed on plate shaker for 2 mins. 4×EC80 of Anti-IgM (Jackson ImmunoResearch) was prepared in dilution buffer and 20 μl/well was added to a new 384-well compound plate. After 60 mins of incubation at 25° C. in the dark; cell plate, compound plate containing 4×EC80 of anti-IgM and FLIPR tips were placed into FLIPR (Molecular Devices). 10 ul/well of 4×EC80 anti-IgM was transferred to the cell plate by FLIPR. Plates were read for 160 sec with 1 sec interval.
With respect to Ramos activity, Table 9 lists activity as follows: • “A” denotes an IC50 of less than 10 nM; • “B” denotes an IC50 of from 10 nM to less than 100 nM; and • “C” denotes and IC50 of 100 nM or more.

For `C=CC(=O)N1CCc2c(-c3c(F)cc(C(N)=O)c4[nH]c(C)cc34)cccc2C1C1CC1` (stereo not shown) [Compound 23, 4-(2-acryloyl-1-cyclopropyl-1,2,3,4-tetrahydroisoquinolin-5-yl)-5-fluoro-2-methyl-1H-indole-7-carboxamide], the half-inhibitory concentration (IC50) in test [1] and in test [2] (Ramos) was 10 to 100 nM each time.
`C=CC(=O)N1Cc2cccc(-c3c(F)cc(C(N)=O)c4[nH]c(C)c(Cl)c34)c2C2(CC2)C1` [Compound 24a, 4-(2′-Acryloyl-2′,3′-dihydro-1′H-spiro[cyclopropane-1,4′-isoquinolin]-5′-yl)-3-chloro-5-fluoro-2-methyl-1H-indole-7-carboxamide]: the IC50 in test [1] was 10 to 100 nM; in test [2] (Ramos), at least 100 nM.
For `C=CC(=O)N1Cc2cccc(-c3c(F)cc(C(N)=O)c4[nH]c(C)cc34)c2C2(CC2)C1` [Compound 24b, 4-(2′-acryloyl-2′,3′-dihydro-1′H-spiro[cyclopropane-1,4′-isoquinolin]-5′-yl)-5-fluoro-2-methyl-1H-indole-7-carboxamide] the same measures were at least 100 nM and at least 100 nM.
On the same counts, the results for `C=CC(=O)N1CCCc2c(cccc2-c2c(F)cc(C(N)=O)c3[nH]c(C)c(Cl)c23)C1` [Compound 25a, 4-(2-Acryloyl-2,3,4,5-tetrahydro-1H-benzo[c]azepin-6-yl)-3-chloro-5-fluoro-2-methyl-1H-indole-7-carboxamide] are 10 to 100 nM and 10 to 100 nM.
With `C=CC(=O)N1CCCc2c(cccc2-c2c(F)cc(C(N)=O)c3[nH]c(C)cc23)C1` [Compound 25b, 4-(2-acryloyl-2,3,4,5-tetrahydro-1H-benzo[c]azepin-6-yl)-5-fluoro-2-methyl-1H-indole-7-carboxamide], the concentration for half-maximal inhibition (IC50) was 10 to 100 nM in test [1] and at least 100 nM in test [2].
Consider `C=CC(=O)N1CCCc2c(cccc2-c2c(F)cc(C(N)=O)c3[nH]c(C)c(F)c23)C1` [Compound 25e, 4-(2-acryloyl-2,3,4,5-tetrahydro-1H-benzo[c]azepin-6-yl)-3,5-difluoro-2-methyl-1H-indole-7-carboxamide], for which the half-maximal inhibitory concentration (IC50) is 10 to 100 nM in test [1] and at least 100 nM in test [2] (Ramos).
For `C=CC(=O)N1CC2CC1c1cccc(-c3c(F)cc(C(N)=O)c4[nH]c(C)c(Cl)c34)c12` (stereo not shown) [Compound 26, 4-(2-acryloyl-1,2,3,4-tetrahydro-1,4-methanoisoquinolin-5-yl)-3-chloro-5-fluoro-2-methyl-1H-indole-7-carboxamide] the same measures were at least 100 nM and at least 100 nM.
Turning to `C=CC(=O)N[C@H]1CN(c2c(F)cc(C(N)=O)c3[nH]c(C)c(C)c23)CC[C@@H]1F` [Compound 30, 4-((3S,4S)-3-acrylamido-4-fluoropiperidin-1-yl)-5-fluoro-2,3-dimethyl-1H-indole-7-carboxamide], the half-maximal inhibitory concentration (IC50) in test [1] and in test [2] (Ramos) was 10 to 100 nM throughout.
Turning to `C=CC(=O)N[C@H]1CN(c2c(F)cc(C(N)=O)c3[nH]c(C)c(C)c23)CC[C@H]1F` [Compound 31, 4-((3S,4R)-3-acrylamido-4-fluoropiperidin-1-yl)-5-fluoro-2,3-dimethyl-1H-indole-7-carboxamide], the IC50 in test [1] and in test [2] (Ramos) was 10 to 100 nM each time.
Take `C=CC(=O)N[C@H]1C[C@@H](F)CN(c2c(F)cc(C(N)=O)c3[nH]c(C)c(C)c23)C1` [Compound 34, 4-((3S,5R)-3-acrylamido-5-fluoropiperidin-1-yl)-5-fluoro-2,3-dimethyl-1H-indole-7-carboxamide]: the IC50 is 10 to 100 nM in test [1] and at least 100 nM in test [2] (Ramos).
On the same counts, the results for `C=CC(=O)N[C@H]1C[C@@H](O)CN(c2c(F)cc(C(N)=O)c3[nH]c(C)c(C)c23)C1` [Compound 37, 4-((3S,5R)-3-acrylamido-5-hydroxypiperidin-1-yl)-5-fluoro-2,3-dimethyl-1H-indole-7-carboxamide] are 10 to 100 nM and at least 100 nM.
